Results as given in PubChem BioAssay AID504739 (National Center for Advancing Translational Sciences (NCATS), 2011).

Test system: mouse liver microsomes, LC-MS/MS, half-life
Test: Inhibitors of Bloom's syndrome helicase: Metabolic Stability Profiling
Settings: at 1 µM; stronger effect = higher value
Excerpt: Survival of cells and the faithful propagation of the genome depend on elaborate mechanisms of detecting and repairing DNA damage. Treatment of advanced cancer relies on radiation therapy or chemotherapy, which kill cancer cells by causing extensive DNA damage. It is often found, that cancer cells develop resistance to therapy through enhanced activity of DNA repair functions; this has led to an increased interest in developing drugs that interfere with DNA repair, which could sensitize cancer cells to conventional therapy. Bloom syndrome helicase (BLM), is important in resolving abnormal DNA structures formed during replication or homologous recombination. Shutting down the expression of BLM leads to chromosomal instability and higher radiation sensitivity in cultured cells. After the completion of a qHTS campaign, secondary assays, and rounds of medicinal chemistry, a compound was identified to be further characterized through in vitro ADME assays. Mouse liver microsomes are created through broken up endoplasmic reticulum from mouse liver. These liver microsomes contain many drug metabolizing enzymes, such as Cytochome P-450s and flavin-containing monooxygenases. Because metabolism is major way of drug clearance, this is an important result. […]
1uM of compound in incubated in mouse liver microsome; the reference compound is ketanserin. […] Samples are analyzed with LC-MS/MS.

- half-life: 120 min
Compound: O=C(Nc1ccc(F)c(C(F)(F)F)c1)Nc1nnc(-c2ccncc2)s1
